Test [1] relates to Arabidopsis thaliana plants. Nature of the test: SOA1 phenotypic analysis of herbicide-treated Arabidopsis plants. The following applies: for leafCurling (Dev.) / leafTwisting (Dev.) / leafWidth (Dev.) / matureLeafAnthocyanins (Dev.) / matureLeafChlorosis (Dev.) / matureLeafNecrosis (Dev.) / newLeafAnthocyanins (Dev.) / newLeafChlorosis (Dev.) / newLeafNecrosis (Dev.) / pointedLeaves (Dev.): numeric value standardized to mock treated tissues; for tMic (Dev.): score for time to full symptoms at minimum inhibitory concentration; for Symptom Class: three-week-old Arabidopsis treated with herbicide, phenotypes shown in FIG. 12; for characteristic symptoms (phenotypic analysis): herbicide-treated Arabidopsis. Format: in vivo.

Test [2] has as its system Saccharomyces cerevisiae wild type strain BY4743. Nature of the test: AF1 metabolite analysis (GC-MS, LC-MS) of yeast treated with antifungal drugs. Format: cell-based.

Data on 15 compounds can be found in patent US20040018500A1, “Methods and systems for analyzing complex biological systems” (priority 2001, published 2004).

Take `O=C(O)COc1ccc(Cl)cc1Cl` [2,4-D]: in test [1], the “leafCurling (Dev.)” value was 1, the “leafTwisting (Dev.)” value is recorded as 2, the “leafWidth (Dev.)” value is reported as −1 and the “matureLeafAnthocyanins (Dev.)” value was 1. Also, in test [1], the “matureLeafChlorosis (Dev.)” value was 2, the “matureLeafNecrosis (Dev.)” value was 0, the “newLeafAnthocyanins (Dev.)” value is 0 and the “newLeafChlorosis (Dev.)” value came to 1. Besides, in test [1], the “newLeafNecrosis (Dev.)” value was 0, the “pointedLeaves (Dev.)” value is listed as 0, the “tMic (Dev.)” value was determined as 2 and the “Symptom Class” value was 5.
`O=C(O)c1cc(Oc2ccc(C(F)(F)F)cc2Cl)ccc1[N+](=O)[O-]` [Acifluorfen]: in test [1], the “characteristic symptoms (phenotypic analysis)” value (shortened to “characteristic symptoms”) is recorded as “Necrotic leaf flecks” and the “Symptom Class” value is 6.
For `CCNc1nc(Cl)nc(NC(C)C)n1` [Atrazine], in test [1], the “characteristic symptoms” value is “rapid and widespread leaf necrosis”; the “Symptom Class” value was found to be 7.
`O=C(O)Cn1c(=O)sc2cccc(Cl)c21` [Benazolin]: in test [1], the “Symptom Class” value is 5.
`CC(C)N1C(=O)c2ccccc2NS1(=O)=O` [Bentazon]: in test [1], the “characteristic symptoms” value was “rapid and widespread leaf necrosis”; the “Symptom Class” value is given as 7.
Consider `COC(=O)c1cc(Oc2ccc(Cl)cc2Cl)ccc1[N+](=O)[O-]` [Bifenox], for which, in test [1], the “characteristic symptoms” value is given as “Necrotic leaf flecks” and the “Symptom Class” value turned out to be 6.
Turning to `COc1c(Cl)ccc(Cl)c1C(=O)O` [Dicamba], in test [1], the “Symptom Class” value was 5.
`c1cc[n+]2c(c1)-c1cccc[n+]1CC2` [Diquat]: in test [1], the “characteristic symptoms” value is “rapid and widespread leaf necrosis”; the “leafCurling (Dev.)” value is reported as 2; the “leafTwisting (Dev.)” value came out at 0; the “leafWidth (Dev.)” value is on record as −2. Further, in test [1], the “matureLeafAnthocyanins (Dev.)” value is 0, the “matureLeafChlorosis (Dev.)” value stood at 1, the “matureLeafNecrosis (Dev.)” value is given as 4 and the “newLeafAnthocyanins (Dev.)” value is 0. Further, in test [1], the “newLeafChlorosis (Dev.)” value is listed as 1, the “newLeafNecrosis (Dev.)” value turned out to be 4, the “pointedLeaves (Dev.)” value came out at 1 and the “tMic (Dev.)” value came to 2. Further, the “Symptom Class” value in test [1] was found to be 7.
As for `CN(C)C(=O)Nc1ccc(Cl)c(Cl)c1` [Diuron], in test [1], the “characteristic symptoms” value was “rapid and widespread leaf necrosis”; the “leafCurling (Dev.)” value was determined as 1; the “leafTwisting (Dev.)” value is 0; the “leafWidth (Dev.)” value is on record as −2. In test [1], the “matureLeafAnthocyanins (Dev.)” value stood at 0, the “matureLeafChlorosis (Dev.)” value was found to be 2, the “matureLeafNecrosis (Dev.)” value is on record as 4 and the “newLeafAnthocyanins (Dev.)” value is on record as “newLeafAnthocyanins 0”. Moreover, in test [1], the “newLeafChlorosis (Dev.)” value was determined as 2, the “newLeafNecrosis (Dev.)” value was 4, the “pointedLeaves (Dev.)” value came out at 1 and the “tMic (Dev.)” value was found to be 1. In test [1], the “Symptom Class” value is 7.
Turning to `OC(Cn1cncn1)(Cn1cncn1)c1ccc(F)cc1F` [Fiuconazole], the “Fold Change of hypoxanthine” value in test [2] (nLC) was found to be 0.7757.
`CCc1cnc(C2=NC(C)(C(C)C)C(=O)N2)c(C(=O)O)c1` (centres unmarked) [Imazethapyr]: in test [1], the “characteristic symptoms” value is “anthocyanin accumulation in the older leaves accompanied by chlorosis of the newly emerging leaves” and the “Symptom Class” value is on record as 4.
In the case of `CCc1cccc(C)c1N(C(=O)CCl)C(C)COC` (centres unmarked) [Metolachlor], the “Symptom Class” value in test [1] was found to be 7.
Take `CSc1nnc(C(C)(C)C)c(=O)n1N` [Metribuzin]: in test [1], the “characteristic symptoms” value was “rapid and widespread leaf necrosis”; the “Symptom Class” value worked out at 7.
Take `CC[C@@H]([C@H](C)O)n1ncn(-c2ccc(N3CCN(c4ccc(OC[C@@H]5CO[C@@](Cn6cncn6)(c6ccc(F)cc6F)C5)cc4)CC3)cc2)c1=O` [Posaconazoie]: the “Fold Change luteolin” value in test [2] (platform LC) was determined as 0.
Turning to `CC[C@@H]([C@H](C)O)n1ncn(-c2ccc(N3CCN(c4ccc(OC[C@@H]5CO[C@@](Cn6cncn6)(c6ccc(F)cc6F)C5)cc4)CC3)cc2)c1=O` [Posaconazote], in test [2] (platform nLC, p-Value 1), the “Fold Change of porphobilinogen” value is 0.
